Laboratory results as given in article PMC9226124, “Macrocycle-stabilization of its interaction with 14-3-3 increases plasma membrane localization and activity of CFTR” (Nature Communications, 2022).
pEC50: −log10 of the molar value. Where “and” joins values, the source holds several entries; their conditions need not be identical. Equal values may be shown once.

What was measured:
[1] = target: T1, 14-3-3β/CFTRpS753pS768 complex (Homo sapiens, UniProt P13569+P31946); assay: Dose-response fluorescence polarization (FP) assay, compound titration; assay type: binding; conditions: for FP signal: With 14-3-3; for Polarization, background subtracted: 14-3-3 10 μM, peptide 100 nM, replicates
T1 construct: His6 (cleaved yes); made in house; peptide synthetic
In short: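 Compounds were titrated in two-fold dilutions against 10 μM 14-3-3β and FITC-CFTR pS753pS768 peptide (100 nM or 10 nM). Buffer: 10 mM HEPES pH 7.4, 150 mM NaCl, 0.1% Tween20, 1 mg/mL BSA. Polarization was read at ex 485/em 535 nm, and EC50 was derived from a four-parameter variable-slope fit.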

[2] = target: T1, 14-3-3β/CFTRpS753pS768 complex; assay: FP assay, 14-3-3β titration at constant compound concentration (apparent KD); assay type: binding; conditions: for Polarization: FC 100 uM, peptide 100 nM; for Polarization / FP signal, 14-3-3β titration / FP signal: replicates; for FP signal, 14-3-3β titration / FP signal: compound 100 μM; for Fluorescence polarization signal, 14-3-3β titration: FC-A (100 μM)

T1 sequence (P31946 whole entry): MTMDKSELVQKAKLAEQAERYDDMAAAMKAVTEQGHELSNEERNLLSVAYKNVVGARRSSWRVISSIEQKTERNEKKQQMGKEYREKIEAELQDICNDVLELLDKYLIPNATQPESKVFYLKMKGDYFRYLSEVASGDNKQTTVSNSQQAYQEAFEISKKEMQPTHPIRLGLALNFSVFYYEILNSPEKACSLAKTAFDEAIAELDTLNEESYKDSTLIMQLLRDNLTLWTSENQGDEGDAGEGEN
T1 sequence (P13569 747-774 limits assumed): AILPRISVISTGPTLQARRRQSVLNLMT

C=CC(C)(C)OC[C@H]1O[C@H](O[C@@H]2C3=C([C@H](C)COC(C)=O)C[C@H](O)[C@]3(C)/C=C3/[C@@H](COC)CC[C@H]3[C@@H](C)[C@H]2O)[C@H](O)[C@@H](OC(C)=O)[C@@H]1O [FC-A, fusicoccin A, reference compound]
pEC50 ([1]; 14-3-3β 10 μM, labeled CFTRpS753pS768 100 nM, read-out: EC50): 4.16 | FP signal ([1]; compound 476.8 pM): 1 | FP signal ([1]; compound 953.7 pM): 5 | FP signal ([1]; compound 1.90735e-9 M): 0 | FP signal ([1]; compound 3.8147e-9 M): 3 | FP signal ([1]; compound 7.6294e-9 M): 3 | FP signal ([1]; compound 1.52588e-8 M): 2 | FP signal ([1]; compound 3.05176e-8 M): 2 | FP signal ([1]; compound 6.10352e-8 M): 1 | FP signal ([1]; compound 1.2207e-7 M): 1 | FP signal ([1]; compound 2.44141e-7 M): 2 | FP signal ([1]; compound 4.88281e-7 M): 4 | FP signal ([1]; compound 9.76563e-7 M): 5 | FP signal ([1]; compound 1.95313e-6 M): 6 | FP signal ([1]; compound 3.90625e-6 M): 15 | FP signal ([1]; compound 7.8125e-6 M): 23 | FP signal ([1]; compound 1.5625e-5 M): 37 | FP signal ([1]; compound 3.125e-5 M): 53 | FP signal ([1]; compound 6.25e-5 M): 70 | FP signal ([1]; compound 0.000125 M): 91 | FP signal ([1]; compound 0.00025 M): 104 | FP signal ([1]; compound 0.0005 M): 116 | FP signal ([1]; compound 0.001 M): 133 | Polarization, background subtracted ([1]; compound 7.8125e-7 M): 8.267 (2×) and 9.167 | Polarization, background subtracted ([1]; compound 1.5625e-6 M): 13.6667 (2×) and 15.2667 | Polarization, background subtracted ([1]; compound 3.125e-6 M): 22.4667 and 22.7667 and 24.2667 | Polarization, background subtracted ([1]; compound 6.25e-6 M): 35.6667 and 36.6667 (2×) | Polarization, background subtracted ([1]; compound 1.25e-5 M): 51.9667 and 52.3667 and 53.1667 | Polarization, background subtracted ([1]; compound 2.5e-5 M): 71.5667 and 71.6667 and 72.5667 | Polarization, background subtracted ([1]; compound 5e-5 M): 88.8667 and 90.2667 and 89.8667 | Polarization, background subtracted ([1]; compound 0.0001 M): 104.867 and 104.367 and 104.267 | Polarization ([2]; 14-3-3β 119.2 pM, listed as FC): 20 and 18 | FP signal, 14-3-3β titration ([2]; 14-3-3β 119.2 pM): 3.333 and 5.333 (2×) | FP signal ([2]; 14-3-3β 139.2 pM): 5 (2×) and 3 | Polarization ([2]; 14-3-3β 238.4 pM, listed as FC): 22 and 21 | FP signal, 14-3-3β titration ([2]; 14-3-3β 238.4 pM): 3.333 and 4.333 and 2.333 | FP signal ([2]; 14-3-3β 278.5 pM): 6 and 5 and 4 | Polarization ([2]; 14-3-3β 476.8 pM, listed as FC): 21 and 19 and 18 | FP signal, 14-3-3β titration ([2]; 14-3-3β 476.8 pM): 4.333 (2×) and 2.333 | FP signal ([2]; 14-3-3β 556.9 pM): 6 (2×) and 5 | Polarization ([2]; 14-3-3β 953.7 pM, listed as FC): 21 and 20 and 18 | FP signal, 14-3-3β titration ([2]; 14-3-3β 953.7 pM): 4.333 (2×) and 6.333 | FP signal ([2]; 14-3-3β 1.11389e-9 M): 5 and 7 and 8 | Polarization ([2]; 14-3-3β 1.90735e-9 M, listed as FC): 18 and 20 and 19 | FP signal, 14-3-3β titration ([2]; 14-3-3β 1.90735e-9 M): 0.3333 and 5.333 and 3.333 | FP signal ([2]; 14-3-3β 2.22778e-9 M): 6 and 8 and 5 | Polarization ([2]; 14-3-3β 3.8147e-9 M, listed as FC): 21 and 19 | FP signal, 14-3-3β titration ([2]; 14-3-3β 3.8147e-9 M): 0.3333 and 3.333 and 2.333 | FP signal ([2]; 14-3-3β 4.45557e-9 M): 4 and 7 and 9 | Polarization ([2]; 14-3-3β 7.62939e-9 M, listed as FC): 20 and 22 and 19 | FP signal, 14-3-3β titration ([2]; 14-3-3β 7.62939e-9 M): 6.333 and 3.333 and 1.333 | FP signal ([2]; 14-3-3β 8.91113e-9 M): 4 and 8 and 6 | Polarization ([2]; 14-3-3β 1.52588e-8 M, listed as FC): 22 and 19 | FP signal, 14-3-3β titration ([2]; 14-3-3β 1.52588e-8 M): 1.333 and 7.333 and 4.333 | FP signal ([2]; 14-3-3β 1.78223e-8 M): 6 (2×) and 7 | Polarization ([2]; 14-3-3β 3.05176e-8 M, listed as FC): 23 and 20 and 22 | FP signal, 14-3-3β titration ([2]; 14-3-3β 3.05176e-8 M): 2.333 and 4.333 and 5.333 | FP signal ([2]; 14-3-3β 3.56445e-8 M): 9 (2×) and 7 | Polarization ([2]; 14-3-3β 6.10352e-8 M, listed as FC): 24 and 25 | FP signal, 14-3-3β titration ([2]; 14-3-3β 6.10352e-8 M): 7.333 and 6.333 (2×) | FP signal ([2]; 14-3-3β 7.12891e-8 M): 10 (2×) and 11 | Polarization ([2]; 14-3-3β 1.2207e-7 M, listed as FC): 28 and 30 | FP signal, 14-3-3β titration ([2]; 14-3-3β 1.2207e-7 M): 5.333 and 9.333 and 6.333 | FP signal ([2]; 14-3-3β 1.42578e-7 M): 15 and 16 and 14 | Polarization ([2]; 14-3-3β 2.44141e-7 M): 35 | FP signal, 14-3-3β titration ([2]; 14-3-3β 2.44141e-7 M): 9.333 and 10.3333 and 5.333 | FP signal ([2]; 14-3-3β 2.85156e-7 M): 24 and 22 (2×) | Polarization ([2]; 14-3-3β 4.88281e-7 M, listed as FC): 48 and 46 | FP signal, 14-3-3β titration ([2]; 14-3-3β 4.88281e-7 M): 9.333 (2×) and 12.3333 | FP signal ([2]; 14-3-3β 5.70313e-7 M): 40 (2×) and 33 | Polarization ([2]; 14-3-3β 9.76563e-7 M, listed as FC): 68 and 64 and 69 | FP signal, 14-3-3β titration ([2]; 14-3-3β 9.76563e-7 M): 18.3333 and 11.3333 and 16.3333 | FP signal ([2]; 14-3-3β 1.14063e-6 M): 66 and 63 and 57 | Polarization ([2]; 14-3-3β 1.95313e-6 M, listed as FC): 98 and 96 and 97 | FP signal, 14-3-3β titration ([2]; 14-3-3β 1.95313e-6 M): 32.3333 and 30.3333 and 31.3333 | FP signal ([2]; 14-3-3β 2.28125e-6 M): 97 and 94 and 86 | Polarization ([2]; 14-3-3β 3.90625e-6 M, listed as FC): 135 and 137 | FP signal, 14-3-3β titration ([2]; 14-3-3β 3.90625e-6 M): 47.3333 (2×) and 44.3333 | FP signal ([2]; 14-3-3β 4.5625e-6 M): 137 and 131 and 124 | Polarization ([2]; 14-3-3β 7.8125e-6 M, listed as FC): 175 and 176 | FP signal, 14-3-3β titration ([2]; 14-3-3β 7.8125e-6 M): 71.3333 and 69.3333 and 64.3333 | FP signal ([2]; 14-3-3β 9.125e-6 M): 171 and 164 and 159 | Polarization ([2]; 14-3-3β 1.5625e-5 M, listed as FC): 212 and 209 | FP signal, 14-3-3β titration ([2]; 14-3-3β 1.5625e-5 M): 98.3333 and 94.3333 (2×) | FP signal ([2]; 14-3-3β 1.825e-5 M): 202 and 191 and 192 | Polarization ([2]; 14-3-3β 3.125e-5 M, listed as FC): 234 and 235 and 231 | FP signal, 14-3-3β titration ([2]; 14-3-3β 3.125e-5 M): 123.333 and 117.333 and 124.333 | FP signal ([2]; 14-3-3β 3.65e-5 M): 216 and 213 and 212 | Polarization ([2]; 14-3-3β 6.25e-5 M, listed as FC): 246 and 249 and 248 | FP signal, 14-3-3β titration ([2]; 14-3-3β 6.25e-5 M): 146.333 and 138.333 and 142.333 | FP signal ([2]; 14-3-3β 7.3e-5 M): 227 and 226 and 224 | Polarization ([2]; 14-3-3β 0.000125 M, listed as FC): 256 and 254 | FP signal, 14-3-3β titration ([2]; 14-3-3β 0.000125 M): 152.333 and 153.333 and 150.333 | FP signal ([2]; 14-3-3β 0.000146 M): 232 and 230 and 229 | Polarization ([2]; 14-3-3β 0.00025 M, listed as FC): 260 and 261 and 258 | FP signal, 14-3-3β titration ([2]; 14-3-3β 0.00025 M): 165.333 and 161.333 and 167.333 | FP signal, 14-3-3β titration ([2]; 14-3-3β 0.0005 M): 177.333 and 174.333 and 175.333 | Fluorescence polarization signal, 14-3-3β titration ([2]; 14-3-3β concentration 119.2 pM): 3.333 and 5.333 | Fluorescence polarization signal, 14-3-3β titration ([2]; 14-3-3β concentration 238.4 pM): 3.333 and 4.333 and 2.333 | Fluorescence polarization signal, 14-3-3β titration ([2]; 14-3-3β concentration 476.8 pM): 4.333 and 2.333 | Fluorescence polarization signal, 14-3-3β titration ([2]; 14-3-3β concentration 953.7 pM): 4.333 and 6.333 | Fluorescence polarization signal, 14-3-3β titration ([2]; 14-3-3β concentration 6.10352e-8 M): 7.333 and 6.333 | Fluorescence polarization signal, 14-3-3β titration ([2]; 14-3-3β concentration 1.2207e-7 M): 5.333 and 9.333 and 6.333 | Fluorescence polarization signal, 14-3-3β titration ([2]; 14-3-3β concentration 2.44141e-7 M): 9.333 and 10.3333 and 5.333 | Fluorescence polarization signal, 14-3-3β titration ([2]; 14-3-3β concentration 4.88281e-7 M): 9.333 and 12.3333 | Fluorescence polarization signal, 14-3-3β titration ([2]; 14-3-3β concentration 9.76563e-7 M): 18.3333 and 11.3333 and 16.3333 | Fluorescence polarization signal, 14-3-3β titration ([2]; 14-3-3β concentration 1.95313e-6 M): 32.3333 and 30.3333 and 31.3333 | Fluorescence polarization signal, 14-3-3β titration ([2]; 14-3-3β concentration 3.90625e-6 M): 47.3333 and 44.3333 | Fluorescence polarization signal, 14-3-3β titration ([2]; 14-3-3β concentration 7.8125e-6 M): 71.3333 and 69.3333 and 64.3333 | Fluorescence polarization signal, 14-3-3β titration ([2]; 14-3-3β concentration 1.5625e-5 M): 98.3333 and 94.3333 | Fluorescence polarization signal, 14-3-3β titration ([2]; 14-3-3β concentration 3.125e-5 M): 123.333 and 117.333 and 124.333 | Fluorescence polarization signal, 14-3-3β titration ([2]; 14-3-3β concentration 6.25e-5 M): 146.333 and 138.333 and 142.333 | Fluorescence polarization signal, 14-3-3β titration ([2]; 14-3-3β concentration 0.000125 M): 152.333 and 153.333 and 150.333 | Fluorescence polarization signal, 14-3-3β titration ([2]; 14-3-3β concentration 0.00025 M): 165.333 and 161.333 and 167.333 | Fluorescence polarization signal, 14-3-3β titration ([2]; 14-3-3β concentration 0.0005 M): 177.333 and 174.333 and 175.333
